Results reported in article PMC4619319, “A potent anti-inflammatory peptide from the salivary glands of horsefly” (Parasites & Vectors, 2015).

Key:
[1] = tested on: P-ERK2; test: Western blot, LPS-induced P-ERK2 in peritoneal macrophages; format: cell-based, mouse; details: 20 μg/mL peptide, 100 ng/mL LPS, 30 min, band density ratio to β-actin
Description: Cells were treated with different concentrations of cecropin-TY1 (0, 5, 10, and 20 μg/mL) in the presence or absence of 100 ng/mL LPS (from E. coli 0111:B4, Sigma-Aldrich, USA). After 30-min incubation, cells were washed twice with ice-cold PBS and lysed with RIPA lysis buffer (Beyotime, China) on ice for 30 min according to our previous method. Protein concentration was quantified by BCA Protein Assay Kit (Thermo, Germany). About 40 μg protein was separated on a 10 % SDS-PAGE gel and transferred to a polyvinylidene difluoride membrane. The membrane was blocked by incubating with 5 % BSA (BD, USA) dissolved in Tris-buffered solution Tween-20 (TBST, 2.42 g/L Trisbase, 8 g/L NaCl, 0.1 % Tween 20, pH 7.6) for 2 h at room temperature. The membrane was then incubated with primary antibodies against ERK, phospho-ERK, p38, phospho-p38, JNK, phospho-JNK, phospho-IκBα, NF-κB p65 and phospho-NF-κB p65 (1:2000, Cell Signaling Technology, USA) and GAPDH/β-actin (1:5000, Santa Cruz Biotechnology, USA) overnight at 4 °C, respectively. After incubation, the immunoblot was washed three times with TBST for 5 min each time, and incubated with secondary antibody (1:5000, Cell Signaling Technology, USA) at room temperature for 1 h. Signals were measured by enhanced chemiluminescence kit in a dark room after washing three times with TBST for 10 min each time (TIANGEN, China).

[2] = tested on: iNOS transcription; test: LPS-stimulated iNOS mRNA transcription in peritoneal macrophages (qPCR); format: cell-based, mouse; details: 100 ng/mL LPS, 6 h
Description: (§1) qPCR was performed using SYBR green master mix (Takara, Japan) on a Realplex Mastercycler real-time PCR system (Eppendorf, Germany) according to the manufacturer’s instruction. The gene transcription levels were normalized to GAPDH or β-actinas as illustrated in figure legends and calculated by ΔΔCt method. The accuracy of qPCR results were checked by melting curve analysis. qPCR primers were listed in Additional file 1: Table S1.
Cells were incubated with peptides (0, 5, 10, and 20 μg/mL) in the presence or absence of LPS (100 ng/mL, from Escherichia coli 0111:B4, Sigma-Aldrich, USA). After 6-h incubation, cells in one plate were washed twice with ice-cold PBS and lysed by Trizol reagent (Life Tech, USA) for total RNA extraction. PrimeScript® Reverse Transcriptase Kit (Takara, Japan) was used to synthesize cDNA for qPCR to examine the transcription levels of inducible nitric oxide synthase (iNOS), which is necessary for NO production. After 24-h incubation, culture medium of each wells of another plate was harvested for nitrite detection, which indirectly reflected the NO production. Nitrite accumulation levels were determined by NO detection kit (Beyotime, China) following the kit instruction.

[3] = tested on: IL-6 transcription; test: LPS-stimulated IL-6 transcription in peritoneal macrophages (qPCR); format: cell-based, mouse; details: 20 μg/mL peptide, 100 ng/mL LPS, 6 h
Description: as §1
(§2) Cells were incubated with peptides (0, 5, 10, and 20 μg/mL) with or without 100 ng/mL LPS (from E. coli 0111:B4, Sigma-Aldrich, USA) for 6 h. After treatment, culture medium was collected for TNF-α, IL-1β and IL-6 quantification using enzyme-linked immunosorbent assay (ELISA) kits (Dakewei, China). Cells were washed with ice-cold PBS and lysed by Trizol reagent (Life Tech, USA). Total RNA was extracted for cDNA synthesis to quantify TNF-α, IL-1β and IL-6 transcription levels by qPCR as described in qPCR section.

[4] = Circular dichroism, secondary structural components; format: physicochemical; details: CD, 25 °C, average of three scans
Description: CD spectra were collected on a Jasco-810 spectropolarimeter (Jasco, Tokyo, Japan) with a 1-mm path-length cell at 25 °C and 0.2-nm intervals from 190 to 260 nm. Cecropin-TY1 was dissolved in H2O, TFE/water solution, SDS/water solution and LPS/water solution at the concentration of 0.2 mg/mL. The data from three scans were averaged and smoothed using the Jasco-810 software for each spectrum. CD data were expressed as the mean residue ellipticity (θ) in deg.cm^2.dmol^−1.

[5] = tested on: TNF-α transcription; test: LPS-stimulated TNF-α transcription in peritoneal macrophages (qPCR); format: cell-based, mouse; details: 20 μg/mL peptide, 100 ng/mL LPS, 6 h
Description: as §1, §2

[6] = cited from earlier work
Excerpt: Supplement 13071_2015_1149_MOESM1_ESM.docx, table 2: Table S2. Primary structural and biochemical characteristics of cecropin-TY1. | column: […]-NH2 39 +5 3970.22 Da 3970.66 Da 11.17

[7] = tested on: TNF-α production; test: LPS-stimulated TNF-α production in peritoneal macrophages (ELISA); format: cell-based, mouse; details: 20 μg/mL peptide, 100 ng/mL LPS, 6 h
Description: as §2

[8] = LPS 50 ng/mL in water, peptide 0.2 mg/mL
[9] = LPS 100 ng/mL in water, peptide 0.2 mg/mL
[10] = LPS 200 ng/mL in water, peptide 0.2 mg/mL
[11] = LPS 400 ng/mL in water, peptide 0.2 mg/mL
[12] = SDS 5 mM in water, peptide 0.2 mg/mL
[13] = SDS 10 mM in water, peptide 0.2 mg/mL
[14] = SDS 20 mM in water, peptide 0.2 mg/mL
[15] = SDS 40 mM in water, peptide 0.2 mg/mL

GWLKKIGKKIERVGQNVRNAAISTLPIAQGAAGVAGALN-NH2 [cecropin-TY1, cecropin antimicrobial peptide from salivary glands of horsefly Tabanus yao, 39 residues, C-terminally amidated, synthesized]
inhibition of LPS-induced P-ERK2 expression [1]: 84.9% | attenuation of LPS-activated iNOS transcription ([2]; 5 μg/mL peptide): 58.8% | attenuation of LPS-activated iNOS transcription ([2]; 10 μg/mL peptide): 68.7% | attenuation of LPS-activated iNOS transcription ([2]; 20 μg/mL peptide): 84.2% | attenuation of LPS-stimulated IL-6 transcription [3]: 94.1% | Beta (%) ([4]; H2O, peptide 0.2 mg/mL): 0.0% | Helix (%) ([4]; H2O, peptide 0.2 mg/mL): 0.0% | Random (%) ([4]; H2O, peptide 0.2 mg/mL): 71.1% | Turn (%) ([4]; H2O, peptide 0.2 mg/mL): 28.9% | Beta (%) [4, 8]: 32.4% | Helix (%) [4, 8]: 0.0% | Random (%) [4, 8]: 55.2% | Turn (%) [4, 8]: 12.4% | Beta (%) [4, 9]: 46.6% | Helix (%) [4, 9]: 2.9% | Random (%) [4, 9]: 47.4% | Turn (%) [4, 9]: 3.1% | Beta (%) [4, 10]: 44.5% | Helix (%) [4, 10]: 12.7% | Random (%) [4, 10]: 41.1% | Turn (%) [4, 10]: 1.7% | Beta (%) [4, 11]: 47.8% | Helix (%) [4, 11]: 14.8% | Random (%) [4, 11]: 37.2% | Turn (%) [4, 11]: 0.1% | Beta (%) [4, 12]: 17.5% | Helix (%) [4, 12]: 45.3% | Random (%) [4, 12]: 37.2% | Turn (%) [4, 12]: 0.0% | Beta (%) [4, 13]: 22.7% | Helix (%) [4, 13]: 41.2% | Random (%) [4, 13]: 36.1% | Turn (%) [4, 13]: 0.0% | Beta (%) [4, 14]: 13.4% | Helix (%) [4, 14]: 46.6% | Random (%) [4, 14]: 40.0% | Turn (%) [4, 14]: 0.0% | Beta (%) [4, 15]: 7.4% | Helix (%) [4, 15]: 54.4% | Random (%) [4, 15]: 38.2% | Turn (%) [4, 15]: 0.0% | Beta (%) ([4]; TFE/H2O 3:7, peptide 0.2 mg/mL): 28.7% | Helix (%) ([4]; TFE/H2O 3:7, peptide 0.2 mg/mL): 28.4% | Random (%) ([4]; TFE/H2O 3:7, peptide 0.2 mg/mL): 42.8% | Turn (%) ([4]; TFE/H2O 3:7, peptide 0.2 mg/mL): 0.0% | Beta (%) ([4]; TFE/H2O 5:5, peptide 0.2 mg/mL): 22.4% | Helix (%) ([4]; TFE/H2O 5:5, peptide 0.2 mg/mL): 36.9% | Random (%) ([4]; TFE/H2O 5:5, peptide 0.2 mg/mL): 40.7% | Turn (%) ([4]; TFE/H2O 5:5, peptide 0.2 mg/mL): 0.0% | Beta (%) ([4]; TFE/H2O 7:3, peptide 0.2 mg/mL): 22.4% | Helix (%) ([4]; TFE/H2O 7:3, peptide 0.2 mg/mL): 37.8% | Random (%) ([4]; TFE/H2O 7:3, peptide 0.2 mg/mL): 39.9% | Turn (%) ([4]; TFE/H2O 7:3, peptide 0.2 mg/mL): 0.0% | Beta (%) ([4]; TFE/H2O 9:1, peptide 0.2 mg/mL): 15.0% | Helix (%) ([4]; TFE/H2O 9:1, peptide 0.2 mg/mL): 45.1% | Random (%) ([4]; TFE/H2O 9:1, peptide 0.2 mg/mL): 39.9% | Turn (%) ([4]; TFE/H2O 9:1, peptide 0.2 mg/mL): 0.0% | attenuation of LPS-stimulated TNF-α transcription [5]: 60.3% | Net charges [6]: 5 | Theoretical pI ([6]; theoretical): 11.17 | reduction of LPS-induced TNF-α production [7]: 72.1%
